# Reference: ChEMBL document CHEMBL5036361, “Structurally Diverse Sesquiterpenoid Glycoside Esters from Pittosporum qinlingense with Anti-neuroinflammatory Activity” (J Nat Prod, 2022)
# Activity calls are given as the source filed them. The rule behind the calls is not given here.
# How the values were obtained:
# BV-2 [1] = experiment: Antineuroinflammatory activity against mouse BV-2 cells assessed as inhibition of LPS-induced NO production incubated for 24 hrs by Griess assay; assay type: functional, cell-based; conditions: BV-2, 24 h
# BV-2 [2] = experiment: Cytotoxicity against mouse BV-2 cells at 6.25 to 100 uM after 24 hrs by MTT assay; assay type: cell-based; conditions: bv-2, 24 h, dose 6.25-100 µM
# BV-2 [3] = experiment: Downregulation of LPS-induced COX-2 expression in mouse BV-2 cells at 1.25 to 10 uM preincubated for 1 hr followed by LPS stimulation for 24 hrs by western blot analysis; assay type: functional, cell-based; conditions: dose 1.25-10 µM
# BV-2 [4] = experiment: Downregulation of LPS-induced iNOS expression in mouse BV-2 cells at 1.25 to 10 uM preincubated for 1 hr followed by LPS stimulation for 24 hrs by western blot analysis; assay type: functional, cell-based; conditions: dose 1.25-10 µM
SMILES,IC50 (BV-2 [1]) [µM],Activity (BV-2 [2]),Activity (BV-2 [3]),Activity (BV-2 [4])
C=C1CC[C@@H](O)[C@]2(C)CC[C@@H](C(C)(C)O[C@@H]3O[C@H](C)[C@H](O)[C@H](OC(=O)/C(C)=C/C)[C@H]3OC(C)=O)[C@H](OC)[C@@H]12,> 50,Non-Toxic,–,–
C=C1C[C@H](O[C@@H]2O[C@H](C)[C@H](O)[C@H](OC(=O)/C(C)=C/C)[C@H]2OC(C)=O)[C@H]2[C@@H]([C@H]3[C@@H]1CC[C@]3(C)O)C2(C)C,> 50,Non-Toxic,–,–
C=C1C[C@H](O[C@@H]2O[C@H](C)[C@H](O)[C@H](O)[C@H]2OC(C)=O)[C@H]2[C@@H]([C@H]3[C@@H]1CC[C@]3(C)O)C2(C)C,> 50,Non-Toxic,–,–
C=C1C[C@@H](O[C@@H]2O[C@H](C)[C@H](O)[C@H](OC(=O)/C(C)=C/C)[C@H]2OC(C)=O)[C@@H](C(C)C)[C@@H]2C=C(C)CC[C@@H]12,> 50,Non-Toxic,–,–
CC(C)[C@@H]1CC[C@@]2(C)[C@H](O)CC[C@](C)(O)[C@@H]2[C@H]1O,> 50,Non-Toxic,–,–
CC1(C)[C@H]2[C@H]3[C@@H](CC[C@@]3(C)O)[C@](C)(O)CC[C@H]21,> 50,Non-Toxic,–,–
C/C=C(\C)C(=O)O[C@H]1[C@@H](O)[C@@H](C)O[C@@H](O[C@H]2C[C@@](C)(O)[C@H]3CC[C@](C)(O)[C@H]3[C@H]3[C@@H]2C3(C)C)[C@@H]1OC(C)=O,> 50,Non-Toxic,–,–
O=c1c(O)c(-c2ccc(O)c(O)c2)oc2cc(O)cc(O)c12 [QUERCETIN],2.45,–,–,–
C[C@@H]1CC[C@H]2[C@@H]1[C@H]1[C@@H](CC[C@@]2(C)O[C@@H]2O[C@H](C)[C@H](O)[C@H](O)[C@H]2O)C1(C)C,> 50,Non-Toxic,–,–
C[C@@H]1CC[C@H]2[C@@H]1[C@H]1[C@@H](CC[C@@]2(C)O)C1(C)C,> 50,Non-Toxic,–,–
C/C=C(/C)C(=O)O[C@@H]1[C@@H](OC(C)=O)[C@H](O[C@]2(C)CC[C@@H]3[C@H]([C@@H]4[C@H](C)CC[C@@H]42)C3(C)C)OC[C@H]1O,24.1,Non-Toxic,–,–

# Now from value to compound, other results behind:
IC50 (BV-2 [1]) [µM],SMILES,Activity (BV-2 [2]),Activity (BV-2 [3]),Activity (BV-2 [4])
0.97,C/C=C(/C)C(=O)O[C@H]1[C@@H](OC(C)=O)[C@@H](C)O[C@@H](O[C@]2(C)CC[C@@H]3[C@H]([C@@H]4[C@H](C)CC[C@@H]42)C3(C)C)[C@@H]1OC(C)=O,Non-Toxic,Active,inactive
> 50,CCC(C)C(=O)O[C@H]1[C@@H](O)[C@@H](C)O[C@@H](O[C@]2(C)CC[C@@H]3[C@H]([C@@H]4[C@H](C)CC[C@@H]42)C3(C)C)[C@@H]1OC(C)=O (some centres not stated),Non-Toxic,–,–
4.95,CC(=O)O[C@H]1[C@H](O[C@@]2(C)CC[C@@H]3[C@H]([C@@H]4[C@H](C)CC[C@@H]42)C3(C)C)O[C@H](C)[C@H](O)[C@@H]1OC(=O)C=C(C)C,Non-Toxic,Active,Active
0.95,CC(=O)O[C@@H]1[C@H](OC(=O)C=C(C)C)[C@@H](OC(C)=O)[C@H](O[C@@]2(C)CC[C@@H]3[C@H]([C@@H]4[C@H](C)CC[C@@H]42)C3(C)C)O[C@@H]1C,Non-Toxic,Active,Active
17.6,CC(=O)O[C@H]1[C@H](O[C@]2(C)CC[C@@H]3[C@H]([C@@H]4[C@H](C)CC[C@@H]42)C3(C)C)O[C@H](C)[C@H](O)[C@@H]1OC(=O)/C=C(/C)CO,Non-Toxic,–,–
21.5,C/C=C(/C)C(=O)O[C@H]1[C@H](O)[C@@H](OC(C)=O)[C@H](O[C@]2(C)CC[C@@H]3[C@H]([C@@H]4[C@H](C)CC[C@@H]42)C3(C)C)O[C@@H]1CO,Non-Toxic,–,–
6.27,C/C=C(/C)C(=O)O[C@H]1[C@H](O)[C@@H](CO)O[C@@H](O[C@]2(C)CC[C@@H]3[C@H]([C@@H]4[C@H](C)CC[C@@H]42)C3(C)C)[C@@H]1OC(C)=O,Non-Toxic,Active,Active
> 50,CC(=O)O[C@H]1[C@H](O[C@]2(C)CC[C@@H]3[C@H]([C@@H]4[C@H](C)CC[C@@H]42)C3(C)C)O[C@H](CO)[C@@H](O)[C@@H]1O,Non-Toxic,–,–
1.43,C/C=C(/C)C(=O)O[C@H]1[C@@H](O)[C@@H](C)O[C@@H](O[C@]2(C)CC[C@@H]3[C@H]([C@@H]4[C@H](C)CC[C@@H]42)C3(C)C)[C@@H]1OC(C)=O,Non-Toxic,–,–
